Assay results: US8853246B2 (Dow AgroSciences LLC, priority 2009, dated 2014)
Read-outs that look alike come from different tables or passages of the source.

How the values were obtained:
[1] = tested on: Green Peach Aphid (Myzus Persicae); experiment: Insecticidal test for green peach aphid in foliar spray assay (col. MYZUPE); type: in vivo; settings: Myzus persicae, 72 h, read-out: MYZUPE 200 ppm (Corrected % Control, rating)
Procedure, shortened: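 Corrected % control derives from microscope counts of live aphids per plant, treated against diluent-only checks, 3 days after foliar spraying at ~25 °C and 40% RH. Test solution was 200 ppm in 0.025% aqueous Tween 20, applied to both leaf sides of infested cabbage seedlings, four pots each.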

[2] = tested on: Sweetpotato Whitefly-Crawler (Bemisia Tabaci); experiment: Insecticidal test for sweetpotato whitefly-crawler in foliar spray assay (col. BEMITA); type: in vivo; settings: Bemisia tabaci, read-out: BEMITA 200 ppm (Corrected % Control, rating)
Procedure, shortened: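 Percent control, Abbott-corrected against diluent-sprayed plants, from microscope counts of live nymphs 8-9 days after treatment. Test solution at 200 ppm in 0.025% aqueous Tween 20 applied to both leaf sides of egg-infested cotton after a 5-6 day hatch period (82° F, 50% RH).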

SMILES: CSCCCC(=O)Nc1sc(-c2cccnc2)nc1C [Compound 374]
- pest or weed control at 200 ppm ([1]; green peach aphid): 80 to 100%
- pest or weed control at 200 ppm ([2]; sweetpotato whitefly-crawler): 80 to 100%
- melting point: 110 to 112 °C

SMILES: Cc1nc(-c2cccnc2)sc1NC(=O)OC1CCCCC1 [Compound 375]
- pest or weed control at 200 ppm ([1]; green peach aphid): < 80%
- pest or weed control at 200 ppm ([2]; sweetpotato whitefly-crawler): < 80%
- melting point: 163 to 167 °C

SMILES: CCCC(C)OC(=O)Nc1sc(-c2cccnc2)nc1C (stereo not drawn) [Compound 376]
- pest or weed control at 200 ppm ([1]; green peach aphid): 80 to 100%
- pest or weed control at 200 ppm ([2]; sweetpotato whitefly-crawler): 80 to 100%
- melting point: 88 to 94 °C

SMILES: CCCCOC(=O)Nc1sc(-c2cccnc2)nc1C [Compound 377]
- pest or weed control at 200 ppm ([1]; green peach aphid): < 80%
- pest or weed control at 200 ppm ([2]; sweetpotato whitefly-crawler): 80 to 100%
- melting point: 108 to 110 °C

SMILES: Cc1nc(-c2cccnc2)sc1NC(=O)OC(C)C(F)(F)F (stereo not drawn) [Compound 378]
- pest or weed control at 200 ppm ([1]; green peach aphid): 80 to 100%
- pest or weed control at 200 ppm ([2]; sweetpotato whitefly-crawler): 80 to 100%
- melting point: 133 to 137 °C

SMILES: COCCOC(=O)Nc1sc(-c2cccnc2)nc1C [Compound 379]
- pest or weed control at 200 ppm ([1]; green peach aphid): 80 to 100%
- pest or weed control at 200 ppm ([2]; sweetpotato whitefly-crawler): < 80%
- melting point: 131 to 134 °C

SMILES: Cc1nc(-c2cccnc2)sc1NC(=O)OCC(F)(F)F [Compound 380]
- pest or weed control at 200 ppm ([1]; green peach aphid): < 80%
- pest or weed control at 200 ppm ([2]; sweetpotato whitefly-crawler): < 80%
- melting point: 170 to 178 °C

SMILES: Cc1nc(-c2cccnc2)sc1NC(=O)c1cccc(SC(F)F)c1 [Compound 381]
- pest or weed control at 200 ppm ([1]; green peach aphid): < 80%
- pest or weed control at 200 ppm ([2]; sweetpotato whitefly-crawler): < 80%
- melting point: 158 to 159 °C

SMILES: CCc1cc(C(=O)N(C)c2sc(-c3cccnc3)nc2Cl)no1 [Compound 383]
- pest or weed control at 200 ppm ([1]; green peach aphid): < 80%
- pest or weed control at 200 ppm ([2]; sweetpotato whitefly-crawler): 80 to 100%
- melting point: 121 to 124 °C

SMILES: Cc1nc(-c2cccnc2)sc1N(C)C(=S)NC(C)C [Compound 386]
- pest or weed control at 200 ppm ([1]; green peach aphid): 80 to 100%
- pest or weed control at 200 ppm ([2]; sweetpotato whitefly-crawler): 80 to 100%
- melting point: 163 to 164 °C

SMILES: CCc1cc(C(=O)Nc2sc(-c3cccnc3)nc2C)no1 [Compound 387]
- pest or weed control at 200 ppm ([1]; green peach aphid): < 80%
- pest or weed control at 200 ppm ([2]; sweetpotato whitefly-crawler): 80 to 100%
- melting point: 129 to 130 °C

SMILES: CCS(=O)(=O)N1CCCC(C(=O)Nc2sc(-c3cccnc3)nc2C)C1 (stereo not drawn) [Compound 388]
- pest or weed control at 200 ppm ([1]; green peach aphid): 80 to 100%
- pest or weed control at 200 ppm ([2]; sweetpotato whitefly-crawler): 80 to 100%
- melting point: 190 to 194 °C

SMILES: Cc1nc(-c2cccnc2)sc1NC(=O)Cn1nc(C)c(S(=O)(=O)N(C)C)c1C [Compound 389]
- pest or weed control at 200 ppm ([1]; green peach aphid): < 80%
- pest or weed control at 200 ppm ([2]; sweetpotato whitefly-crawler): < 80%
- melting point: 214 to 215 °C

SMILES: Cc1nn(CC(=O)N(C)c2sc(-c3cccnc3)nc2Cl)c(C)c1S(=O)(=O)N(C)C [Compound 390]
- pest or weed control at 200 ppm ([1]; green peach aphid): < 80%
- pest or weed control at 200 ppm ([2]; sweetpotato whitefly-crawler): 80 to 100%
- melting point: 185 to 186 °C

SMILES: CCCNC(=O)N(C)c1sc(-c2cccnc2)nc1C [Compound 391]
- pest or weed control at 200 ppm ([1]; green peach aphid): 80 to 100%
- pest or weed control at 200 ppm ([2]; sweetpotato whitefly-crawler): 80 to 100%
- melting point: 150 to 151 °C

SMILES: CN(C(=O)CC[S+](C)[O-])c1sc(-c2cncc(F)c2)nc1F (stereo not drawn) [Compound 392]
- pest or weed control at 200 ppm ([1]; green peach aphid): 80 to 100%
- pest or weed control at 200 ppm ([2]; sweetpotato whitefly-crawler): 80 to 100%
- melting point: 113 to 116 °C

SMILES: CCOC(=O)c1nc(-c2cccnc2)sc1NC(=O)C(C)CSC (stereo not drawn) [Compound 395]
- pest or weed control at 200 ppm ([1]; green peach aphid): < 80%
- pest or weed control at 200 ppm ([2]; sweetpotato whitefly-crawler): < 80%
- melting point: 93 to 101 °C

SMILES: Cc1nc(-c2cccnc2)sc1N(C)C(=S)Nc1ccc(Cl)cc1 [Compound 398]
- pest or weed control at 200 ppm ([1]; green peach aphid): < 80%
- pest or weed control at 200 ppm ([2]; sweetpotato whitefly-crawler): 80 to 100%
- melting point: 53 to 54 °C

SMILES: CSCCC(=O)Nc1sc(-c2cncc(F)c2)nc1Cl [Compound 421]
- pest or weed control at 200 ppm ([1]; green peach aphid): 80 to 100%
- pest or weed control at 200 ppm ([2]; sweetpotato whitefly-crawler): < 80%
- melting point: 153 to 154 °C

SMILES: CC(C)(C)OC(=O)N(C(=O)OC(C)(C)C)c1cnc(-c2cccnc2)s1 [Compound 422]
- pest or weed control at 200 ppm ([1]; green peach aphid): 80 to 100%
- pest or weed control at 200 ppm ([2]; sweetpotato whitefly-crawler): < 80%
- melting point: 114 to 117 °C

SMILES: CCNC(=S)N(C)c1sc(-c2cccnc2)nc1C [Compound 449]
- pest or weed control at 200 ppm ([1]; Abbott's correction formula): 80 to 100%
- pest or weed control at 200 ppm ([2]; Abbott's correction formula): 80 to 100%
- melting point: 137 to 140 °C

SMILES: CN(C(=O)CC[S+](C)[O-])c1sc(-c2cncc(F)c2)nc1Br (stereo not drawn) [Compound 454]
- pest or weed control at 200 ppm ([1]; Abbott's correction formula): 80 to 100%
- pest or weed control at 200 ppm ([2]; Abbott's correction formula): 80 to 100%
- melting point: 170 to 173 °C

SMILES: CN(C(=O)CCS(C)(=O)=O)c1sc(-c2cncc(F)c2)nc1Br [Compound 455]
- pest or weed control at 200 ppm ([1]; Abbott's correction formula): 80 to 100%
- pest or weed control at 200 ppm ([2]; Abbott's correction formula): 80 to 100%
- melting point: 198 to 201 °C

SMILES: CS(=O)(=O)CCC(=O)Nc1sc(-c2cncc(F)c2)nc1Cl [Compound 459]
- pest or weed control at 200 ppm ([1]; Abbott's correction formula): 80 to 100%
- pest or weed control at 200 ppm ([2]; Abbott's correction formula): < 80%
- melting point: 239 to 240 °C
